Experimental data as given in patent publication US20110105496A1, “Methods For The Treatment Of Myosin Heavy Chain-Mediated Conditions Using 4,7-Dihydrothieno[2,3-B]Pyridine Compounds” (priority 2005, published 2011).

System: alpha-MyHC
Assay: alpha-MyHC cytoblot process in neonatal rat ventricular myocytes (NRVM)
Type: cell-based
Details: NRVM, 72 hours; for EC50: alpha-MyHC cytoblot; for Max Plateau: maximum of dose response fit
[1] = Table 1, low control = vehicle only

EC50 (Table 1, mean ± spread)	Compound	Max Plateau (Table 2 (esters))	Max Plateau [1]	further results
4.38 nM	CCC(=O)C1=C(CC)Nc2sc(C(=O)c3ccccc3)c(N)c2C1c1cc(F)cc(F)c1 (centres unmarked) [Compound 105]		273.18 ± 37.33 per cent fraction of low control	
610 nM	CCCC(=O)C1=C(CCC)Nc2sc(C(=O)c3ccc(F)c(F)c3)c(N)c2C1c1ccccc1 (centres unmarked) [Compound 95]		147.01 ± 6.43 per cent fraction of low control	

Continued, molecule first:

Compound	EC50 (Table 1, mean ± spread)	Max Plateau (Table 2 (esters))	Max Plateau [1]	further results
CCC1=C(C(=O)OC)C(c2cc(F)cc(F)c2)c2c(sc(C(=O)c3ccc(Cl)c(Cl)c3)c2N)N1 (centres unmarked) [Compound 171]		296.79 per cent fraction of low control		EC50 (Table 2 (esters)): 0.828 nM
CCC(=O)C1=C(CC)Nc2sc(C(=O)c3ccc(Cl)c(Cl)c3)c(N)c2C1c1cccnc1 (centres unmarked) [Compound 75]	61.3 nM		226.71 ± 40.80 per cent fraction of low control	
CCC(=O)C1=C(CC)Nc2sc(C(=O)c3ccc(C#N)cc3)c(N)c2C1c1ccccc1 (centres unmarked) [Compound 112]			266.67 ± 57.74 per cent fraction of low control	
CCC(=O)C1=C(CC)Nc2sc(C(=O)c3ccc4c(c3)OCO4)c(N)c2C1c1ccccc1F (centres unmarked) [Compound 71]	57.5 nM		223.30 ± 32.84 per cent fraction of low control	
COC(=O)C1=C(C2CC2)Nc2sc(C(=O)c3ccc(Cl)c(Cl)c3)c(N)c2C1c1ccccc1 (centres unmarked) [Compound 133]		180.24 per cent fraction of low control		EC50 (Table 2 (esters)): 71.5 nM
CCC(=O)C1=C(CC)Nc2sc(C(=O)c3ccc(Cl)c(Cl)c3)c(N)c2C1c1ccc(O)cc1Cl (centres unmarked) [Compound 83]	0.249 nM		274.88 ± 44.56 per cent fraction of low control	
CCC(=O)C1=C(CC)Nc2sc(C(=O)c3ccc(Cl)c(Cl)c3)c(N)c2C1c1cccc(Cl)c1 (centres unmarked) [Compound 54]	0.59 nM		267.44 ± 32.29 per cent fraction of low control	
CCC(=O)C1=C(CC)Nc2sc(C(=O)c3ccc(Cl)c(Cl)c3)c(N)c2C1c1cccc(F)c1 (centres unmarked) [Compound 84]	5.4 nM		242.72 ± 19.34 per cent fraction of low control	
CC(=O)C1=C(C)Nc2sc(C(=O)c3ccc(Cl)c(Cl)c3)c(N)c2C1c1ccc(CNC(=O)OC(C)(C)C)cc1 (centres unmarked) [Compound 25]			100.00 ± 0.00 per cent fraction of low control	
CCC1=C(C(=O)OC(C)CC)C(c2ccccc2F)c2c(sc(C(=O)c3ccc(Cl)c(Cl)c3)c2N)N1 (single isomer, unassigned) [Compound 162]		183.22 per cent fraction of low control		EC50 (Table 2 (esters)): 197 nM
CCC1=C(C(=O)OCCOC)C(c2ccccc2F)c2c(sc(C(=O)c3cccc(Cl)c3)c2N)N1 (single isomer, unassigned) [Compound 179]		237.11 ± 19.59 per cent fraction of low control		
COC(=O)C1=C(C(C)(C)C)Nc2sc(C(=O)c3ccc(Cl)c(Cl)c3)c(N)c2C1c1ccccc1 (centres unmarked) [Compound 131]		158.97 per cent fraction of low control		EC50 (Table 2 (esters)): 2900 nM
CC(=O)C1=C(C)Nc2sc(C(=O)c3ccc(Cl)c(Cl)c3)c(N)c2C1(C)c1cccc(F)c1 (centres unmarked) [Compound 207, 1-[3-amino-2-(3,4 dichloro-benzoyl)-4-(3 fluoro-phenyl)-4,6-dimethyl-4,7 dihydro-thieno[2,3-b]pyridin-5-yl]-ethanone]				Max Plateau (Table 4): 148.73 ± 27.95 per cent fraction of low control
CCC1=C(C(=O)OCCOC)C(c2ccnc(F)c2)c2c(sc(C(=O)c3cccc(Cl)c3)c2N)N1 (single isomer, unassigned) [Compound 183]		284.35 ± 38.37 per cent fraction of low control		
CC(=O)C1=C(C)Nc2sc(C(=O)c3ccccc3)c(N)c2C1c1cccnc1 (centres unmarked) [Compound 20]			127.35 ± 23.71 per cent fraction of low control	
CCC(=O)C1=C(CC)Nc2sc(C(=O)c3ccc(Cl)c(Cl)c3)c(N)c2C1c1ccncc1 (centres unmarked) [Compound 104, 1-[3-amino-2-(3,4 dichloro-benzoyl)-6-ethyl-4 pyridin-4-yl-4,7 dihydro-thieno[2,3-b]pyridin-5-yl]-propan-1-one]			242.77 ± 33.52 per cent fraction of low control	
